Target: human F508del-CFTR (Homo sapiens, UniProt P13569, DEL508-508)
Test: F508del-CFTR cell surface expression (corrector activity), DiscoveRx ß-galactosidase complementation chemiluminescence assay in recombinant U2OS cell line;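 note: U2OS cells co-expressing ProLink-tagged F508del-CFTR and a membrane-anchored enzyme acceptor, where more surface CFTR restores β-galactosidase activity measured by chemiluminescence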
Conditions: for EC50: EC50, F508del-CFTR cell surface expression
[1] = U2OS cell line, 16h compound incubation, geomean values
[2] = U2OS, in relation to the Emax of the corrector lumacaftor (=100%), U2OS cell line, 16h compound incubation, arithmetic mean values
[3] = U2OS cells, 16h compound incubation, geomean values
[4] = U2OS, in relation to Emax of corrector lumacaftor (=100%), arithmetic mean values

Chain of human F508del-CFTR (P13569 with tags, fused parts or gaps DEL508-508): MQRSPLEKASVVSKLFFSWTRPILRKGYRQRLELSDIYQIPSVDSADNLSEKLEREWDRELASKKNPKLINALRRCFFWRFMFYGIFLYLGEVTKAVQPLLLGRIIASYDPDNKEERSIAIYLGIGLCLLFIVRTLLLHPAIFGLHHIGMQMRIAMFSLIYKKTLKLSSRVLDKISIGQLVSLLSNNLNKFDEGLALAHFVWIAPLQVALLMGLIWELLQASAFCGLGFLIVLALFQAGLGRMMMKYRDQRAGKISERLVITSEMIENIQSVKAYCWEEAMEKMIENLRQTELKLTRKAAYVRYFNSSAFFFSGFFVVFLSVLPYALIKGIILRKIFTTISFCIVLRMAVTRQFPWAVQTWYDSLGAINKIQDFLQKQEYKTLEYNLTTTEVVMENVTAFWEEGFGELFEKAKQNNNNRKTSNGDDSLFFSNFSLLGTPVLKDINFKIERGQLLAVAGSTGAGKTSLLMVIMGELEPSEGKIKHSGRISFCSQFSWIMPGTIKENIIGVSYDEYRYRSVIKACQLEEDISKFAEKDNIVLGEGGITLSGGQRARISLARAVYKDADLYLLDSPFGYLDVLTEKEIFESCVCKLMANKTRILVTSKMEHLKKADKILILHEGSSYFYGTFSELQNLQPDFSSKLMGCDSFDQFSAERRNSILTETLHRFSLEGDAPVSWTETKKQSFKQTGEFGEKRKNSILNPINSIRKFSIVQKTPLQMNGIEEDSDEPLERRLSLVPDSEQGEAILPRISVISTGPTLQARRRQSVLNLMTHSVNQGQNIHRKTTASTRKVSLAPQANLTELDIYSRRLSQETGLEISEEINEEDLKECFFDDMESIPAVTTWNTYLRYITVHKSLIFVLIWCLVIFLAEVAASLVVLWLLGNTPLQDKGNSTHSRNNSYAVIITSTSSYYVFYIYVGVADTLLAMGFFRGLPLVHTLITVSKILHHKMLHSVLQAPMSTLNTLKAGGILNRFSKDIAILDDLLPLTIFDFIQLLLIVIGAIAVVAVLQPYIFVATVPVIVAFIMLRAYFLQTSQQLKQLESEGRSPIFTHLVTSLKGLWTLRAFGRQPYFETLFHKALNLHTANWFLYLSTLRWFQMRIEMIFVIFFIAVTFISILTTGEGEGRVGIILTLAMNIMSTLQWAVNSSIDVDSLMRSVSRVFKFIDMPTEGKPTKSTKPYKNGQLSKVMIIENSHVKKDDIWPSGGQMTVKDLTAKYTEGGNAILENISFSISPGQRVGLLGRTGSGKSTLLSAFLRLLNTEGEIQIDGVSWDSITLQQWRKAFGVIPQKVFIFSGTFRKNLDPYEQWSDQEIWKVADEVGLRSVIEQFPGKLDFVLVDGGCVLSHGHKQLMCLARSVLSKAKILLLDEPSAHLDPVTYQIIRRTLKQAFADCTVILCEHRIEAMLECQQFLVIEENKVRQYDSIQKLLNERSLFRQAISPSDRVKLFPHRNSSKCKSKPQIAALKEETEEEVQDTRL

SMILES	EC50 [1]	Emax [2]	other results
COCCN1CCN2C(=O)[C@H](CC(C)C)N(C)C(=O)C[C@@H](C(=O)NCCc3cccc(OC)c3)NC(=O)c3c(ccc4ccccc34)OC[C@@H](Cc3ccccc3)NC(=O)[C@H]2C1 [Example 354, (4aR,7R,18S,22S)-7-benzyl-22-isobutyl-3-(2-methoxyethyl)-N-(3-methoxyphenethyl)-21-methyl-5,16,20,23-tetraoxo-2,3,4,4a,5,6,7,8,16,17,18,19,20,21,22,23-hexadecahydro-1H-naphtho[1,2-p]pyrazino[2,1-f][1]oxa[4,7,10,14]tetraazacycloheptadecine-18-carboxamide]	231 nM	321%	–
COc1cccc(CCNC(=O)[C@@H]2CC(=O)N(C)[C@@H](CC(C)C)C(=O)N(C)C3(CC3)C(=O)N[C@H](Cc3ccccc3)COc3cnc4ccc(F)cc4c3C(=O)N2)c1 [Example 131, (3′S,7′S,13′R)-13′-benzyl-20′-fluoro-7′-isobutyl-N-(3-methoxyphenethyl)-6′,9′-dimethyl-1′,5′,8′,11′-tetraoxo-2′,3′,4′,5′,6′,7′,8′,9′,11′,12′,13′,14′-dodecahydro-1′H-spiro[cyclopropane-1,10′-[1]oxa[4,7,10,14]tetraazacycloheptadecino[17,16-c]quinoline]-3′-carboxamide]	127 nM	320%	–
COc1cccc2c1C(=O)N[C@H](C(=O)NCCc1ccc3ccoc3c1)CC(=O)N(C)[C@@H](CC(C)C)C(=O)N(CCC1CCCCC1)CC(=O)N[C@H](Cc1ccccc1)CO2 (racemic) [Example 14, (3R,9S,13RS)-N-(2-(benzofuran-6-yl)ethyl)-3-benzyl-7-(2-cyclohexylethyl)-9-isobutyl-16-methoxy-10-methyl-5,8,11,15-tetraoxo-2,3,4,5,6,7,8,9,10,11,12,13,14,15-tetradecahydrobenzo[p][1]oxa[4,7,10,14]tetraazacycloheptadecine-13-carboxamide]	160 nM	185%	–
CCOc1cccc(CCNC(=O)[C@@H]2CC(=O)N(C)[C@@H](CC(C)C)C(=O)N(CCC3CCCCC3)CC(=O)N[C@H](Cc3ccccc3)COc3cccc(OC)c3C(=O)N2)c1 [Example 201, (3R,9S,13S)-3-benzyl-7-(2-cyclohexylethyl)-N-(3-ethoxyphenethyl)-9-isobutyl-16-methoxy-10-methyl-5,8,11,15-tetraoxo-2,3,4,5,6,7,8,9,10,11,12,13,14,15-tetradecahydrobenzo[p][1]oxa[4,7,10,14]tetraazacycloheptadecine-13-carboxamide]	222 nM	109%	–
CN1C(=O)C[C@@H](C(=O)NCCc2ccc3c(c2)OCO3)NC(=O)c2c(ccc3ccccc23)OC[C@@H](Cc2ccccc2)NC(=O)CN(CCC2CCCCC2)C(=O)[C@@H]1CC1CC1 [Example 341, (3S,7S,13R)-N-(2-(benzo[d][1,3]dioxol-5-yl)ethyl)-13-benzyl-9-(2-cyclohexylethyl)-7-(cyclopropylmethyl)-6-methyl-1,5,8,11-tetraoxo-1,2,3,4,5,6,7,8,9,10,11,12,13,14-tetradecahydronaphtho[1,2-p][1]oxa[4,7,10,14]tetraazacycloheptadecine-3-carboxamide]	144 nM	237%	–
COc1cc(CCNC(=O)[C@@H]2CC(=O)N(C)[C@@H](CC(C)C)C(=O)N3CCCC[C@@H]3C(=O)N[C@H](Cc3ccccc3)COc3ccc4nc(C)n(C)c4c3C(=O)N2)cc(OC)c1 [Example 377, (8S,12S,18aR,21R)-21-benzyl-N-(3,5-dimethoxyphenethyl)-12-isobutyl-4,5,11-trimethyl-6,10,13,19-tetraoxo-6,7,8,9,10,11,12,13,16,17,18,18a,19,20,21,22-hexadecahydro-5H,15H-imidazo[4′,5′:5,6]benzo[1,2-p]pyrido[2,1-f][1]oxa[4,7,10,14]tetraazacycloheptadecine-8-carboxamide]	704 nM	111%	–
CCOc1cccc(CCNC(=O)[C@@H]2CC(=O)N(C)[C@@H](CC(C)C)C(=O)N3CCN(C4CC4)C[C@H]3C(=O)N[C@H](Cc3ccccc3)COc3cnc4ccccc4c3C(=O)N2)c1 [Example 401, (9S,13S,19aS,22R)-22-benzyl-18-cyclopropyl-N-(3-ethoxyphenethyl)-13-isobutyl-12-methyl-7,11,14,20-tetraoxo-7,8,9,10,11,12,13,14,17,18,19,19a,20,21,22,23-hexadecahydro-16H-pyrazino[2′,1′:6,7][1]oxa[4,7,10,14]tetraazacycloheptadecino[17,16-c]quinoline-9-carboxamide]	–	–	EC50 [3]: 559 nM; Emax [4]: 189%
Cc1cccc(F)c1CCNC(=O)[C@@H]1CC(=O)N(C)[C@@H](CC(C)C)C(=O)N2CCCC[C@@H]2C(=O)N[C@H](Cc2ccccc2)COc2cnc3ccccc3c2C(=O)N1 [Example 104, (9S,13S,19aR,22R)-22-benzyl-N-(2-fluoro-6-methylphenethyl)-13-isobutyl-12-methyl-7,11,14,20-tetraoxo-7,8,9,10,11,12,13,14,17,18,19,19a,20,21,22,23-hexadecahydro-16H-pyrido[2′,11:6,7][1]oxa[4,7,10,14]tetraazacycloheptadecino[17,16-c]quinoline-9-carboxamide]	211 nM	204%	–
COc1ccc(CCNC(=O)[C@@H]2CC(=O)N(C)[C@@H](CC(C)C)C(=O)N(C)CC(=O)N[C@H](Cc3ccccc3)COc3cc4c(cc3C(=O)N2)OCO4)cc1 [Example 153, (7R,13S,17S)-7-benzyl-13-isobutyl-N-(4-methoxyphenethyl)-11,14-dimethyl-9,12,15,19-tetraoxo-6,7,8,9,10,11,12,13,14,15,16,17,18,19-tetradecahydro-[1,3]dioxolo[4′,5′:4,5]benzo[1,2-p][1]oxa[4,7,10,14]tetraazacycloheptadecine-17-carboxamide]	460 nM	115%	–
CC(C)C[C@H]1C(=O)N(C)[C@@H](CC2CCC(F)(F)CC2)C(=O)N[C@H](Cc2ccccc2)COc2cnc3ccc(F)cc3c2C(=O)N[C@H](C(=O)NCCc2noc(C3CC3)n2)CC(=O)N1C [Example 540, (3S,7S,10S,13R)-13-benzyl-N-(2-(5-cyclopropyl-1,2,4-oxadiazol-3-yl)ethyl)-10-((4,4-difluorocyclohexyl)methyl)-20-fluoro-7-isobutyl-6,9-dimethyl-1,5,8,11-tetraoxo-1,2,3,4,5,6,7,8,9,10,11,12,13,14-tetradecahydro-[1]oxa[4,7,10,14]tetraazacycloheptadecino[17,16-c]quinoline-3-carboxamide]	–	–	EC50 [3]: 269 nM; Emax (in relation to Emax of corrector lumacaftor (=100%), arithmetic mean values): 256%
COc1cc2c(cc1OC)C(=O)N[C@H](C(=O)NCCc1ccc3c(c1)OCO3)CC(=O)N(C)[C@@H](CC(C)C)C(=O)N(C[C@H]1CCCCO1)CC(=O)N[C@H](Cc1ccccc1)CO2 [Example 159, (3R,9S,13S)-N-(2-(benzo[d][1,3]dioxol-5-yl)ethyl)-3-benzyl-9-isobutyl-17,18-dimethoxy-10-methyl-5,8,11,15-tetraoxo-7-(((R)-tetrahydro-2H-pyran-2-yl)methyl)-2,3,4,5,6,7,8,9,10,11,12,13,14,15-tetradecahydrobenzo[p][1]oxa[4,7,10,14]tetraazacycloheptadecine-13-carboxamide]	385 nM	100%	–
COc1cccc(CCNC(=O)[C@@H]2CC(=O)N(C)[C@@H](CC(C)C)C(=O)N3CCOC[C@@H]3C(=O)N[C@H](Cc3ccccc3)COc3ccc(OC)cc3C(=O)N2)c1 [Example 588, (7S,11S,20R,22aR)-20-benzyl-7-isobutyl-15-methoxy-N-(3-methoxyphenethyl)-8-methyl-6,9,13,22-tetraoxo-1,3,4,6,7,8,9,10,11,12,13,19,20,21,22,22a-hexadecahydrobenzo[p][1,4]oxazino[3,4-f][1]oxa[4,7,10,14]tetraazacycloheptadecine-11-carboxamide]	–	–	EC50 [3]: 650 nM; Emax [4]: 102%
COc1cc(CCNC(=O)[C@@H]2CC(=O)N(C)[C@@H](CC(C)C)C(=O)N(C)[C@@H](CC(F)(F)F)C(=O)N[C@H](Cc3ccccc3)COc3ccc4nc(C)oc4c3C(=O)N2)on1 (mixture of isomers) [Example 974, (8R,11RS,14S,18S)-8-benzyl-14-isobutyl-N-(2-(3-methoxyisoxazol-5-yl)ethyl)-2,12,15-trimethyl-10,13,16,20-tetraoxo-11-(2,2,2-trifluoroethyl)-7,8,9,10,11,12,13,14,15,16,17,18,19,20-tetradecahydrooxazolo[4′,5′:5,6]benzo[1,2-p][1]oxa[4,7,10,14]tetraazacycloheptadecine-18-carboxamide]	–	–	EC50 (U2OS cells, 16h compound incubation, geomean of several measurements): 703 nM; Emax (U2OS, in relation to the Emax of the corrector lumacaftor (=100%), U2OS cells, 16h compound incubation, arithmetic mean): 440%
COc1cccc(CCNC(=O)[C@@H]2CC(=O)N(C)[C@@H](CC(C)C)C(=O)N(CCC3CCCCC3)CC(=O)N[C@H](Cc3ccccc3)COc3cccc(OC)c3C(=O)N2)n1 [Example 220, (3R,9S,13S)-3-benzyl-7-(2-cyclohexylethyl)-9-isobutyl-16-methoxy-N-(2-(6-methoxypyridin-2-yl)ethyl)-10-methyl-5,8,11,15-tetraoxo-2,3,4,5,6,7,8,9,10,11,12,13,14,15-tetradecahydrobenzo[p][1]oxa[4,7,10,14]tetraazacycloheptadecine-13-carboxamide]	258 nM	103%	–
CC(C)C[C@H]1C(=O)N2CCCC[C@@H]2C(=O)N[C@H](Cc2ccccc2)COc2ccc3ncccc3c2C(=O)N[C@H](C(=O)NCCc2nc(C3CC3)no2)CC(=O)N1C [Example 505, (9S,13S,19aR,22R)-22-benzyl-N-(2-(3-cyclopropyl-1,2,4-oxadiazol-5-yl)ethyl)-13-isobutyl-12-methyl-7,11,14,20-tetraoxo-7,8,9,10,11,12,13,14,17,18,19,19a,20,21,22,23-hexadecahydro-16H-pyrido[2′,1′:6,7][1]oxa[4,7,10,14]tetraazacycloheptadecino[16,17-f]quinoline-9-carboxamide]	–	–	EC50 [3]: 229 nM; Emax [4]: 330%
